{
  "source": "ChEMBL document CHEMBL5647688",
  "about": "“Mitogen-activated protein kinase (MEK/ERK) inhibition sensitizes cancer cells to centromere-associated protein E inhibition” (Int J Cancer, 2013)",
  "assay_type_in_all_cases": "functional",
  "key": {"RKO [1]": {"test_system": "RKO", "assay": "Synergistic cytotoxicity against human RKO cells expressing BRAF mutant assessed as combination index at ED75 measured after 72 hrs in presence of MEK inhibitor GSK1120212 by Cell-titer Glo reagent assay"}, "CAPAN-1": {"test_system": "CAPAN-1", "assay": "Synergistic cytotoxicity against human CAPAN-1 cells expressing KRAS mutant assessed as combination index at ED75 measured after 72 hrs in presence of MEK inhibitor GSK1120212 by Cell-titer Glo reagent assay"}, "NCI-H1299": {"test_system": "NCI-H1299", "assay": "Synergistic cytotoxicity against human NCI-H1299 cells expressing NRAS mutant assessed as combination index at ED75 measured after 72 hrs in presence of MEK inhibitor GSK1120212 by Cell-titer Glo reagent assay"}, "NB-1691 [2]": {"test_system": "NB-1691", "assay": "Synergistic cytotoxicity against human NB-1691 cells assessed as combination index at ED 50 measured after 72 hrs in presence of concurrent treatment of […] inhibitor CI-1040 by Cell-titer Glo reagent assay"}, "NCI-H1563": {"test_system": "NCI-H1563", "assay": "Synergistic cytotoxicity against human NCI-H1563 cells assessed as combination index at ED75 measured after 72 hrs in presence of MEK inhibitor GSK1120212 by Cell-titer Glo reagent assay"}, "SW48": {"test_system": "SW48", "assay": "Synergistic cytotoxicity against human SW48 cells assessed as combination index at ED75 measured after 72 hrs in presence of MEK inhibitor GSK1120212 by Cell-titer Glo reagent assay"}, "RKO [3]": {"test_system": "RKO", "assay": "Synergistic cytotoxicity against human RKO cells expressing BRAF mutant assessed as combination index at ED 50 measured after 72 hrs in presence of MEK inhibitor GSK1120212 by Cell-titer Glo reagent assay"}, "NCI-H23": {"test_system": "NCI-H23", "assay": "Synergistic cytotoxicity against human NCI-H23 cells assessed as combination index at ED 50 measured after 72 hrs in presence of MEK inhibitor GSK1120212 by Cell-titer Glo reagent assay"}, "[4]": {"assay": "Synergistic cytotoxicity against human NB-1771 cells assessed as combination index at ED 50 measured after 72 hrs in presence of concurrent treatment of […] inhibitor CI-1040 by Cell-titer Glo reagent assay"}, "NB-1691 [5]": {"test_system": "NB-1691", "assay": "Synergistic cytotoxicity against human NB-1691 cells assessed as combination index at ED 75 measured after 72 hrs in presence of concurrent treatment of […] inhibitor CI-1040 by Cell-titer Glo reagent assay"}, "SK-N-FI": {"test_system": "SK-N-FI", "assay": "Synergistic cytotoxicity against human SK-N-FI cells assessed as combination index at ED 50 measured after 72 hrs in presence of concurrent treatment of […] inhibitor CI-1040 by Cell-titer Glo reagent assay"}, "HPAF-II": {"test_system": "HPAF-II", "assay": "Synergistic cytotoxicity against human HPAF-II cells expressing KRAS mutant assessed as combination index at ED 50 measured after 72 hrs in presence of MEK inhibitor GSK1120212 by Cell-titer Glo reagent assay"}},
  "data": [
    {"smiles": "CC(C)Oc1ccc(C(=O)N[C@H](CNC(=O)CN(C)C)Cc2ccc(-c3cn4cccc([C@H](C)O)c4n3)cc2)cc1Cl", "note": "[GSK-923295A]", "values": [
      {"measurement": "CI", "setting": "RKO [1]", "value": 0.206},
      {"measurement": "CI", "setting": "CAPAN-1", "value": 0.091},
      {"measurement": "CI", "setting": "NCI-H1299", "value": 0.511},
      {"measurement": "CI", "setting": "NB-1691 [2]", "value": 0.256},
      {"measurement": "CI", "setting": "NCI-H1563", "value": 0.243},
      {"measurement": "CI", "setting": "SW48", "value": 0.091},
      {"measurement": "CI", "setting": "RKO [3]", "value": 0.373},
      {"measurement": "CI", "setting": "NCI-H23", "value": 0.259},
      {"measurement": "CI", "setting": "[4]", "value": 0.136},
      {"measurement": "CI", "setting": "NB-1691 [5]", "value": 0.308},
      {"measurement": "CI", "setting": "SK-N-FI", "value": 0.643},
      {"measurement": "CI", "setting": "HPAF-II", "value": 0.567}
    ]}
  ]
}
